The test relates to Escherichia coli ATCC 25922. As to the kind of experiment: 50% growth inhibitory concentration (IC50) determination, Iso-Sensitest broth dilution. It is filed as cell-based. The conditions noted are these: Escherichia coli, ATCC25922, 16 h, strain Escherichia coli ATCC 25922; 10-point broth dilution, optical density at 600 nm over 16 h; read-out: Escherichia coli growth inhibition IC50. In short, it runs like this: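 10-point twofold Iso-Sensitest broth dilution (e.g. 50 to 0.097 μM final) with DMSO stocks, incubated at 35±2° C. Growth followed by OD 600 nm every 20 min over 16 h; IC50 derived from growth inhibition during logarithmic phase.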
With `NC1CC(NC2Cc3cccc(F)c3C2)CCC12CN(c1ccc3c(n1)NC(=O)CO3)C(=O)O2` (racemic) [Example 167, 6-[rac-5,6-cis-5,8-trans-6-amino-8-[(4-fluoro-2,3-dihydro-1H-inden-2-yl)amino]-2-oxo-1-oxa-3-azaspiro[4.5]decan-3-yl]-4H-pyrido[3,2-b][1,4]oxazin-3-one; 2,2,2-trifluoroacetic acid], the 50% inhibitory concentration (IC50) is 0.19 µM.

As to `Cc1nc(Cl)c(F)c2c1CC(CNCCC1CN(c3cnc4c(n3)NC(=O)CO4)C(=O)O1)C2` (stereo not drawn) [Example 398, 6-[5-[2-[(3-chloro-4-fluoro-1-methyl-6,7-dihydro-5H-cyclopenta[c]pyridin-6-yl)methylamino]ethyl]-2-oxo-1,3-oxazolidin-3-yl]-4H-pyrazino[2,3-b][1,4]oxazin-3-one], the concentration for half-maximal inhibition (IC50) was < 0.0977 µM.

On to `Cc1ncc(F)c2c1CC(NCC(O)CC1CN(c3cnc4c(n3)NC(=O)CO4)C(=O)O1)C2` (single isomer, unassigned; isomer c) [Example 315, 6-[2-Oxo-5-[3-[(4-fluoro-1-methyl-6,7-dihydro-5H-cyclopenta[c]pyridin-6-yl)amino]-2-hydroxypropyl]-1,3-oxazolidin-3-yl]-4H-pyrazino[2,3-b][1,4]oxazin-3-one; formic acid, Isomer C], for which the IC50 is 0.668 µM.

As to `Cc1nnc(C)c2c1CC(CNCCC1CN(c3cnc4c(n3)NC(=O)CO4)C(=O)O1)C2` (stereo not drawn) [Example 283, 6-[5-[2-[(1,4-dimethyl-6,7-dihydro-5H-cyclopenta[d]pyridazin-6-yl)methylamino]ethyl]-2-oxo-1,3-oxazolidin-3-yl]-4H-pyrazino[2,3-b][1,4]oxazin-3-one], the half-inhibitory concentration (IC50) turned out to be 0.888 µM.

With `N#Cc1cccc2c1C(O)C(CNCCC1CN(c3ccc4c(n3)NC(=O)CO4)C(=O)O1)C2` (racemic) [Example 151, rac-2,3-trans-3-hydroxy-2-[[2-[2-oxo-3-(3-oxo-4H-pyrido[3,2-b][1,4]oxazin-6-yl)-1,3-oxazolidin-5-yl]ethylamino]methyl]-2,3-dihydro-1H-indene-4-carbonitrile; formic acid], the IC50 was found to be 0.14 µM.

Turning to `Cc1ncc(Cl)c2c1CC(CNCCC1CN(c3cnc4c(n3)NC(=O)CO4)C(=O)O1)C2` (stereo not drawn) [Example 60, 6-[5-[2-[(4-chloro-1-methyl-6,7-dihydro-5H-cyclopenta[c]pyridin-6-yl)methylamino]ethyl]-2-oxo-1,3-oxazolidin-3-yl]-4H-pyrazino[2,3-b][1,4]oxazin-3-one; formic acid], the IC50 was < 0.0977 µM.

`CC(C)(N)COc1cc(C#N)c2c(c1)CC(CNCCC1CN(c3ccc4c(n3)NC(=O)CO4)C(=O)O1)C2` (stereo not drawn) [Example 203, 6-(2-amino-2-methylpropoxy)-2-(((2-(2-oxo-3-(3-oxo-3,4-dihydro-2H-pyrido[3,2-b][1,4]oxazin-6-yl)oxazolidin-5-yl)ethyl)amino)methyl)-2,3-dihydro-1H-indene-4-carbonitrile; 2,2,2-trifluoroacetic acid]: the concentration for half-maximal inhibition (IC50) is < 0.0977 µM.

Consider `NC1(COc2cc(F)c3c(c2)CC(CN2CCC4(CC2)CN(c2cnc5c(n2)NC(=O)CO5)C(=O)O4)C3)CC1` (stereo not drawn) [Example 257, 6-[8-[[6-[(1-Aminocyclopropyl)methoxy]-4-fluoro-2,3-dihydro-1H-inden-2-yl]methyl]-2-oxo-1-oxa-3,8-diazaspiro[4.5]decan-3-yl]-4H-pyrazino[2,3-b][1,4]oxazin-3-one; formic acid], for which the half-inhibitory concentration (IC50) was < 0.0977 µM.

`CC(N)COc1cc(F)c2c(c1)CC(CCN1CC3(C1)CN(c1cnc4c(n1)NC(=O)CO4)C(=O)O3)C2` (stereo not drawn) [Example 327, 6-[2-[2-[6-(2-aminopropoxy)-4-fluoro-2,3-dihydro-1H-inden-2-yl]ethyl]-6-oxo-5-oxa-2,7-diazaspiro[3.4]octan-7-yl]-4H-pyrazino[2,3-b][1,4]oxazin-3-one]: the IC50 is < 0.0977 µM.

For `NCCOc1cc(Cl)c2c(c1)CC(CNCCC1CN(c3ccc4c(n3)NC(=O)CO4)C(=O)O1)C2` (stereo not drawn) [Example 177, 6-[5-[2-[[6-(2-aminoethoxy)-4-chloro-2,3-dihydro-1H-inden-2-yl]methylamino]ethyl]-2-oxo-1,3-oxazolidin-3-yl]-4H-pyrido[3,2-b][1,4]oxazin-3-one], the half-maximal inhibitory concentration (IC50) is < 0.0977 µM.

In the case of `CNC(=O)COc1ccc2c(c1Cl)CC(CNCCC1CN(c3ccc4c(n3)NC(=O)CO4)C(=O)O1)C2` (stereo not drawn) [Example 108, 2-[[4-chloro-2-[[2-[2-oxo-3-(3-oxo-4H-pyrido[3,2-b][1,4]oxazin-6-yl)-1,3-oxazolidin-5-yl]ethylamino]methyl]-2,3-dihydro-1H-inden-5-yl]oxy]-N-methylacetamide], the IC50 was < 0.0977 µM.

For `CNC(=O)COc1cc(F)c2c(c1F)CC(CNCCC1CN(c3ccc4c(n3)NC(=O)CO4)C(=O)O1)C2` (stereo not drawn) [Example 394, 2-[[4,7-difluoro-2-[[2-[2-oxo-3-(3-oxo-4H-pyrido[3,2-b][1,4]oxazin-6-yl)-1,3-oxazolidin-5-yl]ethylamino]methyl]-2,3-dihydro-1H-inden-5-yl]oxy]-N-methylacetamide], the IC50 is < 0.0977 µM.

With `CNC(=O)C(N)COc1cc(F)c2c(c1)CC(CNCCC1CN(c3ccc4c(n3)NC(=O)CO4)C(=O)O1)C2` (stereo not drawn) [Example 255, 2-Amino-3-[[7-fluoro-2-[[2-[2-oxo-3-(3-oxo-4H-pyrido[3,2-b][1,4]oxazin-6-yl)-1,3-oxazolidin-5-yl]ethylamino]methyl]-2,3-dihydro-1H-inden-5-yl]oxy]-N-methylpropanamide; formic acid], the IC50 came to 0.18 µM.

Consider `N#Cc1cc(OCC2(N)CC2)cc2c1CC(CNCCC1CN(c3cnc4c(n3)NC(=O)CO4)C(=O)O1)C2` (stereo not drawn) [Example 186, 6-((1-aminocyclopropyl)methoxy)-2-(((2-(2-oxo-3-(3-oxo-3,4-dihydro-2H-pyrazino[2,3-b][1,4]oxazin-6-yl)oxazolidin-5-yl)ethyl)amino)methyl)-2,3-dihydro-1H-indene-4-carbonitrile], for which the half-inhibitory concentration (IC50) is < 0.0977 µM.

Consider `NC1c2cccc(Cl)c2CC1CNCCC1CN(c2ncc3c(n2)NC(=O)CO3)C(=O)O1` (racemic) [Example 290, 2-[5-[2-[(rac-1,2-trans-1-amino-4-chloro-2,3-dihydro-1H-inden-2-yl)methylamino]ethyl]-2-oxo-1,3-oxazolidin-3-yl]-8H-pyrimido[5,4-b][1,4]oxazin-7-one], for which the concentration for half-maximal inhibition (IC50) amounted to 0.261 µM.

Consider `N[C@@H]1c2cccc(Cl)c2C[C@H]1CNCC[C@@H]1CN(c2cnc3c(n2)NC(=O)CO3)C(=O)O1` [Example 422, 6-[(5R)-5-[2-[[(1S,2S)-1-Amino-4-chloro-2,3-dihydro-1H-inden-2-yl]methylamino]ethyl]-2-oxo-1,3-oxazolidin-3-yl]-4H-pyrazino[2,3-b][1,4]oxazin-3-one], for which the IC50 was < 0.0977 µM.

Regarding `Cc1nc(C#N)c2c(c1F)CC(CNCCC1CN(c3cnc4c(n3)NC(=O)CO4)C(=O)O1)C2` (stereo not drawn) [Example 363, 4-fluoro-3-methyl-6-[[2-[2-oxo-3-(3-oxo-4H-pyrazino[2,3-b][1,4]oxazin-6-yl)-1,3-oxazolidin-5-yl]ethylamino]methyl]-6,7-dihydro-5H-cyclopenta[c]pyridine-1-carbonitrile; formic acid], the 50% inhibitory concentration (IC50) is < 0.0977 µM.

`CC(N)COc1ccc2c(c1C#N)CC(CNCCC1CN(c3ccc4c(n3)NC(=O)CO4)C(=O)O1)C2` (stereo not drawn) [Example 134, 5-(2-aminopropoxy)-2-[[2-[2-oxo-3-(3-oxo-4H-pyrido[3,2-b][1,4]oxazin-6-yl)-1,3-oxazolidin-5-yl]ethylamino]methyl]-2,3-dihydro-1H-indene-4-carbonitrile; formic acid]: the IC50 was determined as 0.114 µM.

These data come from patent publication US20230167127A1, “COMPOUNDS AND THEIR USE IN THE TREATMENT OF BACTERIAL INFECTION” (Hoffmann-La Roche Inc., priority 2020, published 2023).
